One test deals with WT HRAS-BRAF complex. Description: WT HRAS-BRAF with CYPA interaction assay (TR-FRET). Format: biochemical. How it is done:
In this example, TR-FRET was used to measure the compound or compound-CYPA dependent disruption of the KRAS G12V-BRAF complex to assess inhibition efficacy. The IC50 ratio between WT KRAS/HRAS/NRAS and KRAS G12V mutant was calculated as selective index, which indicated tolerability and safety profile. Disruption of WT KRAS/HRAS/NRAS-BRAF complex by compounds was detected respectively. In assay buffer containing 25 mM HEPES (PH-7.4,4-(2-hydroxyethyl)-1-piperazineethanesulfonic acid, Thermo, 15630080), 0.002% Tween20, 0.1% BSA, 100 mM NaCl, 5 mM MgCl2, 10 μM GMPPNP (Guanosine 5′-[β,γ-imido]triphosphate trisodium salt hydrate, Sigma, G0635), tagless CYPA and GMPPNP loaded 6His-RAS proteins, and GST-BRAF^RBD were mixed in a well of a 384-well assay plate at final concentrations of 50 nM, 6.25 nM and 1 nM, respectively. Compound was present in plate wells as a 16-point 3-fold dilution series starting at a final concentration of 10 μM and incubated for 3 hours. A mixture of MAb Anti-6His-XL665 (Cisbio, 61HISXLB) and Mab anti-GST-TB cryptate (Cisbio, 61GSTTLB) was then added at a final concentration of 6.67 nM and 0.21 nM, respectively, and the plate was incubated for an additional 1.5 hours. TR-FRET signal was read on a PHERstar FSX microplate reader (Ex320 nm, Em 665/615 nm). Compounds that facilitate disruption of the RAS-BRAF complex were identified as those eliciting a decrease in the TR-FRET ratio relative to DMSO control wells.
Background: In TR-FRET formats the signal depends on donor and acceptor labels being close together.

The subject of test [1] is phosphorylation of ERK, KRAS G12C in NCI-H358 cells. As to the kind of experiment: pERK inhibition assay. Format: cell-based. As to conditions: Homo sapiens, NCI-H358, 4 h. The essentials:
(§1)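 Cells in RPMI-1640 with 10% FBS were plated overnight (30,000/well H358, 20,000 AGS, 30,000 SW620) and treated 4 h with compounds at 0.5% DMSO. After formaldehyde fixation and methanol permeabilization, pERK was detected by in-cell ELISA with HRP secondary and TMB (OD450); IC50 from 4-parameter fit.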

Test [2] concerns phosphorylation of ERK, KRAS G12D in AGS cells. Description: pERK inhibition assay. The class given is cell-based. As to conditions: 4 hours. The essentials: as §1
Test [3] concerns phosphorylation of ERK, KRAS G12V in SW620. Description: pERK inhibition assay. Format: cell-based. The conditions noted are these: Homo sapiens, SW-620, 4 h, SW620 cells. In short, it runs like this: as §1

pIC50: −log10 of the molar value.

In general, pIC50 refers to −log10 of the IC50, conventionally taken in molar units. Turning to `CO[C@@H](C)c1ncc(N2CCN(C)CC2)cc1-c1c2c3cc(cc4c3n1CCC4)-c1csc(n1)C[C@H](NC(=O)[C@H]1[C@H](C)[C@@H]1C)C(=O)N1CCC[C@H](N1)C(=O)OCC(C)(C)C2` (atropisomer, axis not shown; (M)) [Example 24, (1r,2R,3S)-N-[(7S,13S)-(20M)-20-[2-[(1S)-1-methoxyethyl]-5-(4-methylpiperazin-1-yl)-3-pyridyl]-17,17-dimethyl-8,14-dioxo-15-oxa-4-thia-9,21,30,31-tetrazahexacyclo[23.3.1.1^2,5.1^9,13.0^19,27.0^21,26]hentriaconta-1 (28),2,5 (31), 19,25 (29),26-hexaen-7-yl]-2,3-dimethyl-cyclopropanecarboxamide], the “Selectivity Index (IC50 ratio) WT HRAS/KRAS G12V” value in the test on WT HRAS-BRAF complex was determined as 5.4. The pIC50 in test [1] was over 9.22; in test [2] it was 9.05; in test [3] it was over 9.22.

The values are drawn from patent US20240417410A1, “TRICYCLIC COMPOUNDS FOR THE TREATMENT OF CANCER” (Hoffmann-La Roche Inc., priority 2023, published 2024).
